Measured values: patent US20120065152A1 (SHIRE LLC, priority 2010, published 2012)
Where “and” joins values, the source holds several entries; their conditions need not be identical. Equal entries are not always repeated. Structures can show the parent of a compound that is named as a salt.

Columns and labels:
[1] = Comparative bioavailability study of guanfacine in monkeys given guanfacine or guanfacine prodrug; assay type: in vivo, monkey; conditions: for Prodrug Cmax: monkeys, 0.5 mg/kg guanfacine free base equivalents; for Cmax: monkey, plasma, po, 0.5 mg/kg
Procedure: Blood samples were taken at various times after administration and submitted to analysis for the parent drug and prodrug using a qualified LC-MS-MS assay. The following pharmacokinetic parameters derived from the plasma analytical data were determined using Win Nonlin;

[2] = Stability studies on guanfacine prodrugs in buffers; assay type: physicochemical
rat = assay: Elevated Plus-Maze Test in the rat; assay type: in vivo
From the text: The method, which detects anxiolytic activity, follows that described by Handley and Mithani (Naunyn. Schmied. Arch. Pharmacol., 327, 1-5, 1984). Rodents avoid open spaces (the open arms of an elevated plus-maze). The percentage of time spent on the open arms and the number of entries in the open arms are considered to be the best measures of anxiety (File, S. E. 1991. Animal models of anxiety. In Biological Psychiatry (G. Racagni, N. Brunello, and T. Fukuda, eds.) pp. 596-599. Elsevier, New York.).
Anxiolytics increase exploratory activity in the open arms, as indicated by increased time spent on the open arms and/or by increased % open-arm entries.

rat GIT transit = assay: Charcoal propulsion test (gut motility) in rat; assay type: in vivo; conditions: oral; for % inhibition of rat GIT transit: 60 min before charcoal
Procedure: The effect of a drug on gut motility can be studied by means of the charcoal propulsion test.
The method used was based on that described by Takemori et al. (J. Pharmacol. Exp. Ther. 169:39, 1969). Test treatments were administered orally 60 minutes prior to an oral dose of a 10% suspension of charcoal in 2.5% gum Arabic (2 ml/kg). Twenty minutes after dosing with charcoal, the rats were sacrificed and the entire gastrointestinal tract was removed quickly and carefully. The distance that the charcoal meal had traveled toward the caecum was measured and expressed as a percentage of the total gut length.

[3] = as early as; cited from earlier work
[4] = DMSO, organic solvent or mixture, Solubility, in DMSO
[5] = water/CH3CN (1:1), aqueous with cosolvent or surfactant or cyclodextrin, Solubility, in water/CH3CN (1:1)
[6] = pH 1.2, 37° C., 0.1M HCl/NaCl buffer, 1 h
[7] = pH 1.2, 37° C., 0.1M HCl/NaCl buffer, time 0
[8] = pH 3.0, 20° C., 0.1M citrate buffer, 2 h
[9] = pH 3.0, 20° C., 0.1M citrate buffer, time 0
[10] = pH 6.8, 37° C., 0.1M phosphate buffer, 2 h
[11] = pH 6.8, 37° C., 0.1M phosphate buffer, time 0
[12] = pH 7.4, 37° C., 0.1M phosphate buffer, 2 h
[13] = pH 7.4, 37° C., 0.1M phosphate buffer, time 0
[14] = pH 7.4, 37° C., 0.1M phosphate buffer, 2 h, listed as Guanfacine (2-Hydroxyethyl) Carbamate
[15] = pH 1.2, 37° C., 0.1M HCl/NaCl buffer, 1 h, Hydrochloride

Structure (SMILES)	solubility (Solubility; [4]) [µg/mL]	solubility (Solubility; water, Solubility, in water) [µg/mL]	solubility (Solubility; [5]) [µg/mL]	Prodrug Cmax [1]	Active drug [2, 6]	Active drug [2, 7]	Pro-drug [2, 7]	Active drug [2, 8]	Active drug [2, 9]	Pro-drug [2, 9]	Active drug [2, 10]	Active drug [2, 11]	Pro-drug [2, 11]	Active drug [2, 12]	Active drug [2, 13]	Pro-drug [2, 13]	also measured
CCCOC(=O)NC(N)=NC(=O)Cc1c(Cl)cccc1Cl.Cl [Compound 4, 1-{N′-[2-(2,6-Dichloro-phenyl)acetyl]-guanidinocarbonyloxy}propane Hydrochloride]	> 10000	< 1000	> 1000	BLQ	0.0	0.0	100	0.0	0.0	100	0.0	0.0	100	0.0	0.0	100	Pro-drug ([2]; pH 1.2, 37° C., 0.1M HCl/NaCl buffer, 1 h, listed as Guanfacine N-Propyl Carbamate Hydrochloride, Hydrochloride): 94.4 and 94.6; Pro-drug ([2]; pH 3.0, 20° C., 0.1M citrate buffer, 2 h, listed as Guanfacine N-Propyl Carbamate Hydrochloride, Hydrochloride): 94.0 and 94.4; Pro-drug ([2]; pH 6.8, 37° C., 0.1M phosphate buffer, 2 h, listed as Guanfacine N-Propyl Carbamate Hydrochloride, Hydrochloride): 95.8 and 96.4; Pro-drug ([2]; pH 7.4, 37° C., 0.1M phosphate buffer, 2 h, listed as Guanfacine N-Propyl Carbamate Hydrochloride, Hydrochloride): 96.3 and 96.0
CC(C)OC(=O)NC(N)=NC(=O)Cc1c(Cl)cccc1Cl.Cl [Compound 5, 2-{N′-[2-(2,6-Dichloro-phenyl)acetyl]-guanidinocarbonyloxy}propane Hydrochloride]	> 10000	< 1000	–	BLQ	–	–	–	–	–	–	–	–	–	–	–	–	solubility (Solubility; 3.0 mL CH3CN/3.0 mL H2O, aqueous with cosolvent or surfactant or cyclodextrin, Solubility, in 3.0 mL CH3CN/3.0 mL H2O): > 833 µg/mL
CCCCOC(=O)NC(N)=NC(=O)Cc1c(Cl)cccc1Cl.Cl [Compound 6, 1-{N′-[2-(2,6-Dichloro-phenyl)-acetyl]-guanidinocarbonyloxy}butane Hydrochloride]	> 10000	< 1000	> 1000	BLQ	0.0	0.0	100	0.0	0.0	100	0.0	0.0	100	0.0	0.0	100	Pro-drug [2, 6]: 94.0; Pro-drug ([2]; pH 3.0, 20° C., 0.1M citrate buffer, 2 h, listed as Guanfacine N-Butyl Carbamate Hydrochloride, Hydrochloride): 94.6 and 94.9; Pro-drug ([2]; pH 6.8, 37° C., 0.1M phosphate buffer, 2 h, listed as Guanfacine N-Butyl Carbamate Hydrochloride, Hydrochloride): 90.9 and 90.7; Pro-drug ([2]; pH 7.4, 37° C., 0.1M phosphate buffer, 2 h, listed as Guanfacine N-Butyl Carbamate Hydrochloride, Hydrochloride): 90.7 and 91.0
CCC(C)OC(=O)NC(N)=NC(=O)Cc1c(Cl)cccc1Cl.Cl (stereo not drawn) [Compound 7, 2-{N′-[2-(2,6-Dichloro-phenyl)-acetyl]-guanidinocarbonyloxy}-butane Hydrochloride]	–	–	–	–	0.0	0.0	100	0.0	0.0	100	0.0	0.0	100	0.0	0.0	100	solubility (physchem; organic solvent or mixture): > 10000 µg/mL; solubility (physchem; water): < 1000 µg/mL; Pro-drug [2, 6]: 95.9; Pro-drug ([2]; pH 3.0, 20° C., 0.1M citrate buffer, 2 h, listed as Guanfacine 2-Butanol Carbamate Hydrochloride, Hydrochloride): 98.7 and 98.9; Pro-drug [2, 10]: 93.4; Pro-drug ([2]; pH 7.4, 37° C., 0.1M phosphate buffer, 2 h, listed as Guanfacine 2-Butanol Carbamate Hydrochloride, Hydrochloride): 93.4 and 93.6
NC(=NC(=O)Cc1c(Cl)cccc1Cl)NC(=O)OCCO [Compound 19, 2-{N′-[2-(2,6-Dichloro-phenyl)-acetyl]-guanidinocarbonyloxy}ethanol]	> 10000	< 1000	> 10000	–	0.5	0.0	100	0.4	0.0	100	9.8	0.0	100	–	0.0	100	Change in time spent in the open arms (rat; 10 mg/kg, NS): +69%; Change in percent of entries in open arms (rat; 10 mg/kg, p<0.05): +87%; Efficacy in the Elevated Plus-Maze Test (rat; rat): efficacious; Cmax [1]: 60.8 ng/mL; Pro-drug ([2]; pH 1.2, 37° C., 0.1M HCl/NaCl buffer, 1 h, listed as Guanfacine (2-Hydroxyethyl) Carbamate): 91.4 and 91.5; Pro-drug [2, 8]: 98.0; Pro-drug ([2]; pH 6.8, 37° C., 0.1M phosphate buffer, 2 h, listed as Guanfacine (2-Hydroxyethyl) Carbamate): 87.4 and 87.5; Active drug [2, 14]: 22.6 and 22.3; Pro-drug [2, 14]: 72.5 and 73.0
NC(=NC(=O)Cc1c(Cl)cccc1Cl)NC(=O)OCCCO [Compound 22, 3-{N′-[2-(2,6-Dichloro-phenyl)-acetyl]-guanidinocarbonyloxy}propan-1-ol]	> 10000	< 1000	> 10000	–	0.0	0.0	100	0.0	0.0	100	0.0	0.0	100	0.0	0.0	100	Cmax [1]: 3.49 ng/mL; Pro-drug ([2]; pH 1.2, 37° C., 0.1M HCl/NaCl buffer, 1 h, listed as Guanfacine (3-Hydroxypropyl) Carbamate): 94.8 and 94.9; Pro-drug ([2]; pH 3.0, 20° C., 0.1M citrate buffer, 2 h, listed as Guanfacine (3-Hydroxypropyl) Carbamate): 98.1 and 98.3; Pro-drug ([2]; pH 6.8, 37° C., 0.1M phosphate buffer, 2 h, listed as Guanfacine (3-Hydroxypropyl) Carbamate): 99.2 and 99.7; Pro-drug [2, 12]: 98.2
CCSC(=O)NC(N)=NC(=O)Cc1c(Cl)cccc1Cl.Cl [Compound 30, Guanfacine Ethanethiol Carbamate Hydrochloride]	–	–	–	BLQ	–	0.0	100	0.0	0.0	100	0.0	0.0	100	0.0	0.0	100	solubility (Solubility; in DMSO): > 10000 µg/mL; solubility (Solubility; in water): < 1000 µg/mL; solubility (Solubility; in water/CH3CN (1:2)): > 5000 µg/mL; Active drug [2, 15]: 10.1 and 11.0; Pro-drug [2, 15]: 81.0 and 80.4; Pro-drug ([2]; pH 3.0, 20° C., 0.1M citrate buffer, 2 h, Hydrochloride): 85.6 and 84.8; Pro-drug ([2]; pH 6.8, 37° C., 0.1M phosphate buffer, 2 h, Hydrochloride): 93.0 and 92.5; Pro-drug ([2]; pH 7.4, 37° C., 0.1M phosphate buffer, 2 h, Hydrochloride): 94.5 and 95.2
N=C(N)NC(=O)Cc1c(Cl)cccc1Cl [Guanfacine, N-Amidino-2-(2,6-dichlorophenyl)acetamide monohydrochloride, reference compound]	–	–	–	–	–	–	–	–	–	–	–	–	–	–	–	–	% inhibition of rat GIT transit (rat GIT transit; dose 00.1 mg/kg (guanfacine free base equivalents)): 41%; % inhibition of rat GIT transit (rat GIT transit; dose 00.3 mg/kg (guanfacine free base equivalents)): 56%; Reduction in the distance traveled by the charcoal plug within 20 minutes, compared to control group (rat GIT transit; 0.1 mg base/kg): about 41%; Time after dosing at which peak plasma drug levels are reached [3]: ≥ 1 h
